Experimental data: patent US20210255193A1, “LYSINE REACTIVE PROBES AND USES THEREOF” (The Scripps Research Institute, priority 2017, published 2021)

Legend:
Assay in all cases: competitive isoTOP-ABPP
Type in all cases: binding
DCTN2 Dynactin subunit 2 = molecular target: T1, DCTN2 Dynactin subunit 2 (Homo sapiens, UniProt Q13561); settings: for R value (DMSO/fragment) for probe 1 labeling: Q13561_K175; for R value (DMSO/fragment) for probe 1 labeling / isoTOP-ABPP reactivity ratio at lysine Q13561_K175 / isoTOP-ABPP ratio (R) at liganded lysine Q13561_K175: 50 uM, in vitro; for R value (DMSO/fragment) for probe 1 labeling / isoTOP-ABPP reactivity ratio at lysine Q13561_K175: 231 sol; for isoTOP-ABPP ratio (R) at liganded lysine Q13561_K175: sol, 231; for isoTOP-ABPP ratio, lysine Q13561_K175: 50 uM_231_sol_in vitro
T1 construct: isoTOP-ABPP experiments performed in cell lysates (in vitro); endogenous in cells; host or cells: soluble proteome of human cancer cell lines (MDA-MB-231, Ramos, Jurkat)
T1 sequence (Q13561 whole entry, the tested form may be a part): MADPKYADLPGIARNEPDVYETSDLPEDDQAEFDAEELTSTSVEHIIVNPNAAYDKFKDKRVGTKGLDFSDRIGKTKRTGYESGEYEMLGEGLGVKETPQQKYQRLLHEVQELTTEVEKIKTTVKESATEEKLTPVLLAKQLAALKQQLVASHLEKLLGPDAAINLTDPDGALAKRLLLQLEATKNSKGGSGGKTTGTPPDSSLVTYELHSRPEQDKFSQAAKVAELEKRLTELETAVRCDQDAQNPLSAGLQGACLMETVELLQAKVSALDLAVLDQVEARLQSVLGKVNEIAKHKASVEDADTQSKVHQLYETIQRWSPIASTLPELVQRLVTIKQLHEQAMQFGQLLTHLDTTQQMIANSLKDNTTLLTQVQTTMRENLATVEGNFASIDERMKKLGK
Summary of the method: (§1)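 Fragments at 50 μM (activated esters) or 100 μM (guanidinylating agents) were incubated with 0.5 ml lysate before probe labeling. After 0.1 mM STP-alkyne for 1 h, samples were clicked to isotopically distinct TEV tags, and R taken as DMSO-over-compound MS1 peak-area ratio.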

[1] = molecular target: T2, PFKL 6-phosphofructokinase, liver type (Homo sapiens, UniProt P17858); settings: for R value (DMSO/fragment) for probe 1 labeling / isoTOP-ABPP reactivity ratio at lysine P17858_K677 / isoTOP-ABPP reactivity ratio at lysine P17858_K715 / isoTOP-ABPP reactivity ratio at lysine P17858_K315 / isoTOP-ABPP ratio (R) at liganded lysine P17858_K677 / isoTOP-ABPP ratio (R) at liganded lysine P17858_K715 / isoTOP-ABPP ratio (R) at liganded lysine P17858_K315: 50 uM, in vitro; for R value (DMSO/fragment) for probe 1 labeling / isoTOP-ABPP reactivity ratio at lysine P17858_K677 / isoTOP-ABPP reactivity ratio at lysine P17858_K715 / isoTOP-ABPP reactivity ratio at lysine P17858_K315: 231 sol; for isoTOP-ABPP ratio (R) at liganded lysine P17858_K677 / isoTOP-ABPP ratio (R) at liganded lysine P17858_K715 / isoTOP-ABPP ratio (R) at liganded lysine P17858_K315: sol, 231; for isoTOP-ABPP ratio, lysine P17858_K315 / isoTOP-ABPP ratio, lysine P17858_K677 / isoTOP-ABPP ratio, lysine P17858_K715: 50 uM_231_sol_in vitro; for isoTOP-ABPP ratio, lysine P17858_K677: possible other lysine P17858_K681; for isoTOP-ABPP ratio, lysine P17858_K715: possible other lysine P17858_K714
T2 construct: isoTOP-ABPP experiments performed in cell lysates (in vitro); endogenous in cells; host or cells: soluble proteome of human cancer cell lines (MDA-MB-231; Ramos and Jurkat also prepared)
T2 sequence (P17858 1-780): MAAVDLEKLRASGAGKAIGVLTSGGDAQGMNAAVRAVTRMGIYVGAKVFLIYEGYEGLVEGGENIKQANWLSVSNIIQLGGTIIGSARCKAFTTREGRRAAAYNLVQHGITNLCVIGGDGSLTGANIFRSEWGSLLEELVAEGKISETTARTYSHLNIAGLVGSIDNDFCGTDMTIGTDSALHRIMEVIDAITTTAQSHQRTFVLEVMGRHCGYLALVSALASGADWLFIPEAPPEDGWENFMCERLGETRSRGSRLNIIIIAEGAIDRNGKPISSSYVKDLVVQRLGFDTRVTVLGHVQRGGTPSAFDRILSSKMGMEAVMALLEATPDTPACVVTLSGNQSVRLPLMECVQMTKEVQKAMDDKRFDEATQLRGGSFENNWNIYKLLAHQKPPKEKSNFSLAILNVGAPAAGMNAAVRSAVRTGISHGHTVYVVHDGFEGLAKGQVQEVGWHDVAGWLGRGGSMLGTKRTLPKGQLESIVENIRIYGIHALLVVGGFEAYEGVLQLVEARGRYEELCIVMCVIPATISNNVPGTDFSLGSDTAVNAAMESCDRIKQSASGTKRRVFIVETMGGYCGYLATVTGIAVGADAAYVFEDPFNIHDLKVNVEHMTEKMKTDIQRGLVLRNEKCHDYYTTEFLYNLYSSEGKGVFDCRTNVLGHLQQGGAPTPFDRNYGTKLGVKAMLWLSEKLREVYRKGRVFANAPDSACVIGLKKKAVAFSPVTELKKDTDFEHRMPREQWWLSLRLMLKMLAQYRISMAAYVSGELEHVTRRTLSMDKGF
Summary of the method: as §1

[2] = molecular target: T3, GTPBP3 tRNA modification GTPase GTPBP3, mitochondrial (Homo sapiens, UniProt Q969Y2); settings: for R value (DMSO/fragment) for probe 1 labeling: Q969Y2_K492; for R value (DMSO/fragment) for probe 1 labeling / isoTOP-ABPP reactivity ratio at lysine Q969Y2_K492 / isoTOP-ABPP ratio (R) at liganded lysine Q969Y2_K492: 50 uM, in vitro; for R value (DMSO/fragment) for probe 1 labeling / isoTOP-ABPP reactivity ratio at lysine Q969Y2_K492: 231 sol; for isoTOP-ABPP ratio (R) at liganded lysine Q969Y2_K492: sol, 231; for isoTOP-ABPP ratio, lysine Q969Y2_K492: 50 uM_231_sol_in vitro
T3 construct: isoTOP-ABPP experiments performed in cell lysates (in vitro); endogenous in cells; host or cells: soluble proteome of human cancer cell lines (MDA-MB-231; Ramos and Jurkat also prepared)
T3 sequence (Q969Y2 21-492): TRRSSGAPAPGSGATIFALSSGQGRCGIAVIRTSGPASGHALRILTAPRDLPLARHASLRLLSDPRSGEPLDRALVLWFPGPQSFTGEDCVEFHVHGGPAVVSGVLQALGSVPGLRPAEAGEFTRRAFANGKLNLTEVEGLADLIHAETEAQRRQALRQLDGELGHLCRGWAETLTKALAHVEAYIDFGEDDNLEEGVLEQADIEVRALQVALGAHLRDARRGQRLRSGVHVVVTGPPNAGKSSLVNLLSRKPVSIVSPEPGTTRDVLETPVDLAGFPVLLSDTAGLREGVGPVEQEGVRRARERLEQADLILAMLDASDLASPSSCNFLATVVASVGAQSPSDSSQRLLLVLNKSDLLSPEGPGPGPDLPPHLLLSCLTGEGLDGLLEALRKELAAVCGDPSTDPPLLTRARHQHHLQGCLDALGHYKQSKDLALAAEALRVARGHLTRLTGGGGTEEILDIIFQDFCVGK
Summary of the method: as §1

Compound	isoTOP-ABPP reactivity ratio at lysine Q13561_K175 (DCTN2 Dynactin subunit 2)	isoTOP-ABPP reactivity ratio at lysine P17858_K677 [1]	isoTOP-ABPP reactivity ratio at lysine Q969Y2_K492 [2]	isoTOP-ABPP ratio (R) at liganded lysine Q13561_K175 (DCTN2 Dynactin subunit 2)	isoTOP-ABPP ratio (R) at liganded lysine P17858_K677 [1]	isoTOP-ABPP ratio (R) at liganded lysine P17858_K715 [1]	isoTOP-ABPP ratio (R) at liganded lysine Q969Y2_K492 [2]	further results
O=C(Oc1c(F)c(F)c(F)c(F)c1F)C(c1ccccc1)c1ccccc1 [fragment 20, Pentafluorophenyl 2,2-diphenylacetate]								R value (DMSO/fragment) for probe 1 labeling (DCTN2 Dynactin subunit 2): 1.0; R value (DMSO/fragment) for probe 1 labeling ([1]; P17858_K677): 18.8; R value (DMSO/fragment) for probe 1 labeling ([1]; P17858_K715): 1.3; R value (DMSO/fragment) for probe 1 labeling [2]: 1.1
O=C(Oc1c(F)c(F)c(F)c(F)c1F)c1cc(C(F)(F)F)cc(C(F)(F)F)c1 [fragment 21, Pentafluorophenyl 3,5-bis(trifluoromethyl)benzoate]								R value (DMSO/fragment) for probe 1 labeling (DCTN2 Dynactin subunit 2): 0.9; R value (DMSO/fragment) for probe 1 labeling ([1]; P17858_K677): 0.9; R value (DMSO/fragment) for probe 1 labeling ([1]; P17858_K715): 0.9; R value (DMSO/fragment) for probe 1 labeling [2]: 1.3
Cn1cc(CC(=O)Oc2c(F)c(F)c(F)c(F)c2F)c2ccccc21 [fragment 22, Pentafluorophenyl 2-(1-methyl-1H-indol-3-yl)acetate]								R value (DMSO/fragment) for probe 1 labeling (DCTN2 Dynactin subunit 2): 1.7; R value (DMSO/fragment) for probe 1 labeling ([1]; P17858_K677): 2.7; R value (DMSO/fragment) for probe 1 labeling ([1]; P17858_K715): 2.9; R value (DMSO/fragment) for probe 1 labeling [2]: 1.1
O=C(CCc1coc2cc(F)ccc2c1=O)Oc1c(F)c(F)c(F)c(F)c1F [fragment 26, Pentafluorophenyl 3-(7-fluoro-4-oxo-4H-chromen-3-yl)propanoate]	1.6	20.0	5.0					isoTOP-ABPP reactivity ratio at lysine P17858_K715 [1]: 1.5
O=C(CN1C(=O)c2ccccc2C1=O)Oc1c(F)c(F)c(F)c(F)c1F [fragment 27, Pentafluorophenyl 2-(1,3-dioxoisoindolin-2-yl)acetate]	1.2	18.1	1.6					isoTOP-ABPP reactivity ratio at lysine P17858_K715 [1]: 1.3
O=C(CCc1cn(-c2ccccc2)nc1-c1ccccc1)Oc1ccc([N+](=O)[O-])cc1[N+](=O)[O-] [fragment 29, 2,4-Dinitrophenyl 3-(1,3-diphenyl-1H-pyrazol-4-yl)propanoate]	1.3	2.0	20.0					isoTOP-ABPP reactivity ratio at lysine P17858_K315 [1]: 0.8; isoTOP-ABPP reactivity ratio at lysine P17858_K715 [1]: 6.8
O=C(Oc1ccc([N+](=O)[O-])cc1[N+](=O)[O-])C(c1ccccc1)c1ccccc1 [fragment 30, 2,4-Dinitrophenyl 2,2-diphenylacetate]	3.4	20.0	1.5					isoTOP-ABPP reactivity ratio at lysine P17858_K315 [1]: 4.9
O=C(Oc1ccc([N+](=O)[O-])cc1[N+](=O)[O-])c1cc(C(F)(F)F)cc(C(F)(F)F)c1 [fragment 31, 2,4-Dinitrophenyl 3,5-bis(trifluoromethyl)benzoate]	1.0	2.5	1.4					isoTOP-ABPP reactivity ratio at lysine P17858_K715 [1]: 2.3
Cn1cc(CC(=O)Oc2ccc([N+](=O)[O-])cc2[N+](=O)[O-])c2ccccc21 [fragment 32, 2,4-Dinitrophenyl 2-(1-methyl-1H-indol-3-yl)acetate]	4.4	11.9	1.8					isoTOP-ABPP reactivity ratio at lysine P17858_K315 [1]: 20.0; isoTOP-ABPP reactivity ratio at lysine P17858_K715 [1]: 7.7
O=C(Oc1ccc([N+](=O)[O-])cc1[N+](=O)[O-])C1CCN(C(=O)OCc2ccccc2)CC1 [fragment 34, 1-Benzyl 4-(2,4-dinitrophenyl) piperidine-1,4-dicarboxylate]				1.7	2.8	1.3	1.6	
O=C(CCc1coc2cc(F)ccc2c1=O)Oc1ccc([N+](=O)[O-])cc1[N+](=O)[O-] [fragment 36, 2,4-Dinitrophenyl 3-(7-fluoro-4-oxo-4H-chromen-3-yl)propanoate]					20.0	20.0	2.9	
O=C(Oc1ccc([N+](=O)[O-])cc1[N+](=O)[O-])c1ccc(-c2ccccc2)cc1 [fragment 37, 2,4-Dinitrophenyl [1,1′-biphenyl]-4-carboxylate]				0.9	1.1	1.1	1.2	isoTOP-ABPP ratio (R) at liganded lysine P17858_K315 [1]: 1.3
O=C(CC12CC3CC(CC(C3)C1)C2)Oc1ccc([N+](=O)[O-])cc1[N+](=O)[O-] [fragment 38, 2,4-Dinitrophenyl 2-(adamantan-1-yl)acetate]					1.3	20.0	1.1	isoTOP-ABPP ratio (R) at liganded lysine P17858_K315 [1]: 0.4
O=C(Oc1ccc([N+](=O)[O-])cc1[N+](=O)[O-])c1ccc(Oc2ccccc2)cc1 [fragment 39, 2,4-Dinitrophenyl 4-phenoxybenzoate]				0.8	1.3	0.6	1.2	
O=C(Oc1ccc([N+](=O)[O-])cc1[N+](=O)[O-])c1ccccc1Nc1cccc(C(F)(F)F)c1 [fragment 40, 2,4-Dinitrophenyl 2-((3-(trifluoromethyl)phenyl)amino)benzoate]				0.9	0.9	1.1	0.6	
O=C(Oc1ccc([N+](=O)[O-])cc1[N+](=O)[O-])C(c1ccccc1)(c1ccccc1)c1ccccc1 [fragment 42, 2,4-Dinitrophenyl 2,2,2-triphenylacetate]				0.9	0.8	0.9	0.9	isoTOP-ABPP ratio (R) at liganded lysine P17858_K315 [1]: 0.7
CC(=O)Oc1ccc([N+](=O)[O-])cc1[N+](=O)[O-] [fragment 43, 2,4-Dinitrophenyl acetate]				0.6	3.2	1.3	1.5	
N#Cc1ccc(C(=O)Oc2ccc([N+](=O)[O-])cc2[N+](=O)[O-])cc1 [fragment 44, 2,4-Dinitrophenyl 4-cyanobenzoate]								isoTOP-ABPP ratio, lysine Q13561_K175 (DCTN2 Dynactin subunit 2): 0.8; isoTOP-ABPP ratio, lysine P17858_K315 [1]: 0.8; isoTOP-ABPP ratio, lysine P17858_K677 [1]: 1.7; isoTOP-ABPP ratio, lysine P17858_K715 [1]: 1.8; isoTOP-ABPP ratio, lysine Q969Y2_K492 [2]: 0.9
O=C(CCc1ccc2c(c1)OCO2)Oc1ccc([N+](=O)[O-])cc1[N+](=O)[O-] [fragment 45, 2,4-Dinitrophenyl 3-(benzo[d][1,3]dioxol-5-yl)propanoate]								isoTOP-ABPP ratio, lysine Q13561_K175 (DCTN2 Dynactin subunit 2): 1.6; isoTOP-ABPP ratio, lysine P17858_K315 [1]: 1.8; isoTOP-ABPP ratio, lysine P17858_K677 [1]: 2.9; isoTOP-ABPP ratio, lysine P17858_K715 [1]: 10.9; isoTOP-ABPP ratio, lysine Q969Y2_K492 [2]: 1.4
